Reference: patent US7112579B2, “26,27-Homologated-20-EPI-2-alkyl-19-nor-vitamin D compounds” (Wisconsin Alumni Research Foundation, priority 1997, dated 2006)
Like-named read-outs stand apart in the source and are kept apart here.

Key:
[1] = target: T1, porcine intestinal vitamin D receptor (Sus scrofa, UniProt A3RGC1); test: Competitive binding to the porcine intestinal vitamin D receptor ([3H]-1,25-(OH)2-D3 displacement); set-up: species or system pig; settings: for VDR Binding ratio: analog average ED50 / ED50 for 1α,25-(OH)2D3; for EC50: concentration for 50% displacement of radiolabeled 1α,25-(OH)2D3, read-out: VDR Binding ED50
T1 construct: from tissue; host or cells: porcine intestine
T1 sequence (A3RGC1 1-427): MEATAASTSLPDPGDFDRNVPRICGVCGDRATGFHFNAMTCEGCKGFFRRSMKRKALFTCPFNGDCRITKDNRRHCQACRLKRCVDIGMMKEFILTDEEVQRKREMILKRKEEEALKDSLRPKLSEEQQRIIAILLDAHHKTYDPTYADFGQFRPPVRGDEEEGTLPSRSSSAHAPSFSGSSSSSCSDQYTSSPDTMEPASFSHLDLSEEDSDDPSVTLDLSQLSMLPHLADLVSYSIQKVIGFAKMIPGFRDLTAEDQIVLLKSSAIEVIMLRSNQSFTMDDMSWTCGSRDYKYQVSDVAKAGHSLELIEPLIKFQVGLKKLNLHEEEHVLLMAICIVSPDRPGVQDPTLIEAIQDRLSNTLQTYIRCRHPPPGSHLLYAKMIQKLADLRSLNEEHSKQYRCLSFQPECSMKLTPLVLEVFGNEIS

[2] = system: intestinal calcium transport; test: Intestinal calcium transport (everted sac), chronic doses 7 days i.p., vitamin D-deficient rats; assay type: in vivo, rat; settings: for Intestinal Calcium Transport (S/M): Table 4, mean±SEM, listed as 2β-Methyl-19-nor-1,25-(OH)2D3
Procedure: (§1) Male weanling rats were obtained from Sprague Dawley Co. (Indianapolis, Ind.) and fed a 0.47% calcium, 0.3% phosphorus vitamin D-deficient diet for 1 week and then given the same diet containing 0.02% calcium, 0.3% phosphorus for 2 weeks. During the last week they were given the indicated dose of compound by intraperitoneal injection in 0.1 ml 95% propylene glycol and 5% ethanol each day for 7 days. The control animals received only the 0.1 ml of 95% propylene glycol, 5% ethanol. Twenty-four hours after the last dose, the rats were sacrificed and intestinal calcium transport was determined by everted sac technique as previously described and serum calcium determined by atomic absorption spectrometry on a model 3110 Perkin Elmer instrument (Norwalk, Conn.). There were 5 rats per group and the values represent mean±SEM.
as §1, with “With respect to the data in Tables 3 and 4, male” for “Male”, “atormic” for “atomic”

[3] = system: serum calcium (bone calcium mobilization); test: Serum calcium (bone calcium mobilization), chronic doses 7 days i.p., vitamin D-deficient rats; assay type: in vivo, rat; settings: for Serum Calcium: Table 4, mean±SEM, listed as 2β-Methyl-19-nor-1,25-(OH)2D3
Procedure: as §1
as §1, with “With respect to the data in Tables 3 and 4, male” for “Male”, “atormic” for “atomic”

[4] = system: human promyelocyte HL-60 cells; test: Differentiation of HL-60 promyelocytes into monocytes (NBT reduction); assay type: cell-based; settings: for HL-60 Differentiation Activity ratio: analog average ED50 / ED50 for 1α,25-(OH)2D3; for HL-60 Differentiation ED50: concentration inducing 50% maturation (NBT)
From the text: In the next assay, the cellular activity of the synthesized compounds was established by studying their ability to induce differentiation of human promyelocyte HL-60 cells into monocytes.

[5] = system: intestinal calcium transport; test: Support of intestinal calcium transport in vitamin D-deficient rats on a low-calcium diet (3 weeks), 7 daily i.p. doses; assay type: in vivo, rat
[6] = system: bone calcium mobilization (serum Ca); test: Bone calcium mobilization (serum Ca) in vitamin D-deficient rats on a low-calcium diet (3 weeks), 7 daily i.p. doses; assay type: in vivo, rat
[7] = chronic 7 days, 130 and/or 260 pmol/day, listed as 2β-methyl-19-nor-1,25-(OH)2D3
[8] = Table 9 panel 2, 65 pmol daily x 7 i.p.
[9] = Table 9 panel 2, 260 pmol daily x 7 i.p.
[10] = Table 7 panel 1, 32 pmol daily x 7 i.p.
[11] = Table 7 panel 1, 65 pmol daily x 7 i.p.
[12] = Table 7 panel 2, 65 pmol daily x 7 i.p.
[13] = Table 7 panel 2, 260 pmol daily x 7 i.p.

CC1[C@H](O)CC(=C/C=C2\CCC[C@]3(C)[C@@H]([C@H](C)CCCC(C)(C)O)CC[C@@H]23)C[C@H]1O (stereo partly drawn) [Compound 13, 1α,25-Dihydroxy-2β-methyl-19-nor-vitamin D3]
receptor binding, less effective than 1α,25-(OH)2D3 ([1]; relative to 1α,25-(OH)2D3): 39 fold
Intestinal Calcium Transport (S/M) ([2]; 130 pmol/day/7 days i.p.): 4.4 ± 0.8 S/M
Intestinal Calcium Transport (S/M) ([2]; 260 pmol/day/7 days i.p.): 3.1 ± 0.9 S/M
intestinal calcium transport activity, in words [2, 7]: little, if any
Serum Calcium ([3]; 130 pmol/day/7 days i.p.): 4.1 ± 0.1 mg/100 ml
Serum Calcium ([3]; 260 pmol/day/7 days i.p.): 3.8 ± 0.2 mg/100 ml
bone calcium mobilization (serum calcium) activity, in words [3, 7]: little, if any
calcemic activity (intestinal calcium transport and bone calcium mobilization), in words ([3]; chronic doses, rats): lack of calcemic activity
induction of differentiation of HL-60 cells to monocytes, in words ([4]; FIGS. 2, 4, 6, comparison in words): high potency in cellular differentiation

CC1[C@H](O)CC(=C/C=C2\CCC[C@@]3(C)C2CCC3[C@@H](C)CCCC2(O)CCCC2)C[C@H]1O (stereo partly drawn) [Compound 49, 20(S)-1α,25-Dihydroxy-26,27-dimethylene-2β-methyl-19-norvitamin D3]
VDR Binding ratio ([1]; Table 8): 2.6
EC50 ([1]; Table 8): 2.3 nM
Ca Transport S/M (mean ± SEM) [5, 8]: 4.9 ± 0.6^d^1 S/M
Ca Transport S/M (mean ± SEM) [5, 9]: 5.4 ± 0.7^d^2 S/M
Serum Ca (mean ± SEM) [6, 8]: 5.8 ± 0.2^d^1
Serum Ca (mean ± SEM) [6, 9]: 9.5 ± 0.1^d^2
HL-60 Differentiation Activity ratio ([4]; Table 8): 0.08
HL-60 Differentiation ED50 ([4]; Table 8): 0.32 nM

C[C@H](CCCC(C)(C)O)[C@H]1CC[C@H]2/C(=C/C=C3C[C@@H](O)C(CO)[C@H](O)C3)CCC[C@]12C (stereo partly drawn) [Compound 20, 1α,25-Dihydroxy-2α-(hydroxymethyl)-19-norvitamin D3]
ability to bind the porcine intestinal vitamin D receptor, in words ([1]; FIGS. 1, 3 and 5, comparison in words): about the same binding affinity as 23

CCC(O)(CC)CCCC(C)C1CCC2C(=CC=C3CC(O)C(C)C(O)C3)CCCC21C [Compound 36, 20(S)-1α,25-Dihydroxy-2α-methyl-26,27-dihomo-19-nor-vitamin D3]
VDR Binding ratio ([1]; Table 6): 3.6
EC50 ([1]; Table 6): 3.1 nM
Ca Transport S/M (mean ± SEM) [5, 10]: 5.8 ± 0.4^d^1 S/M
Ca Transport S/M (mean ± SEM) [5, 11]: 8.4 ± 0.8^d^2 S/M
Serum Ca (mean ± SEM) [6, 10]: 5.9 ± 0.2^d^1
Serum Ca (mean ± SEM) [6, 11]: 9.3 ± 0.2^d^2
HL-60 Differentiation Activity ratio ([4]; Table 6): 0.01
HL-60 Differentiation ED50 ([4]; Table 6): 0.06 nM

CCC(O)(CC)CCCC(C)C1CCC2C(=CC=C3CC(O)C(C)C(O)C3)CCCC21C [Compound 37, 20(S)-1α,25-Dihydroxy-2β-methyl-26,27-dihomo-19-norvitamin D3]
VDR Binding ratio ([1]; Table 6): 5.5
EC50 ([1]; Table 6): 4.8 nM
Ca Transport S/M (mean ± SEM) [5, 12]: 4.7 ± 0.6^d^1 S/M
Ca Transport S/M (mean ± SEM) [5, 13]: 5.2 ± 0.6^d^2 S/M
Serum Ca (mean ± SEM) [6, 12]: 5.0 ± 0.0^d^1
Serum Ca (mean ± SEM) [6, 13]: 9.9 ± 0.3^d^2
HL-60 Differentiation Activity ratio ([4]; Table 6): 0.03
HL-60 Differentiation ED50 ([4]; Table 6): 0.11 nM
